Data from PMC6027433, “Synthesis, Evaluation of Cytotoxicity and Molecular Docking Studies of the 7-Acetamido Substituted 2-Aryl-5-bromo-3-trifluoroacetylindoles as Potential Inhibitors of Tubulin Polymerization” (Pharmaceuticals, 2018).

Experiments:
[1] = system: lung cancer (A549) cells; assay: MTT dose response cytotoxicity, A549; format: cell-based; conditions: Homo sapiens, 48 h
Procedure: (§1) Cells were seeded as described in above. […] The medium was aspirated and replaced with 200 μL fresh medium containing the dilution of the respective test compound. The test sample were added to each well and the plates were incubated for a further 48 h at 37 °C under 5% CO2 atmosphere in a humidified incubator. After this incubation period, the medium was removed and then replaced with 100 μL fresh culture medium containing MTT at a final concentration of 0.5 mg/mL. The 96-well plates were returned to the incubator and incubated for an additional 3 h. The medium was removed and the MTT crystals were solubilized in 100 μL DMSO and the absorbance was measured at 560 nm using a Labsystems Multiwell Scanning spectrophotometer (Thermo Fischer Scientific, Edenvale, South Africa).
(§2) Quantification of live and dead cells for the screening assay was performed using the ImageXpress Micro XLS Widefield Microscope and acquired images analysed using the MetaXpress software and Multi-Wavelength Cell Scoring Application Module. Acquired data was transferred to an EXCEL spreadsheet and relative cell viability was determined using quadruplicate wells for each concentration. Untreated cells were considered to have 100% cell viability (i.e., the mean OD of the untreated wells = 100% viability). Cell viabilities in other test wells were calculated relative to the untreated control and expressed as a percentage. Dose response analysis was performed using the statistical software GraphPad Prism and IC50 values calculated from the concentration-response data using a mathematical Hill function.

[2] = system: A549 cells; assay: Other apoptotic features (PS translocation, cell cycle arrest, mitochondrial membrane depolarization), A549; format: cell-based, human; conditions: after 24 h (data not included)
Procedure: (§3) Several distinctive mechanisms of cancer cell death such as apoptosis, necrosis, autophagy and cornification have been identified, and these are characterized by differences in morphology and biochemical changes. A major biochemical feature of apoptosis is the activation of caspases, which plays a central role in the morphological changes associated with apoptosis. Caspase activation was determined using immunochemical methods and the antibodies against activated caspase 8 and caspase 3. […] Activated caspase 8 can be used as a convenient indicator of involvement of the extrinsic death receptor pathway of apoptosis. Executioner caspases including caspase 3 are, in turn, activated by the initiator caspases. This protein is either partially or totally responsible for the cleavage of many key proteins such as PARP, DNA protein kinases and retinoblastoma protein [25]. […] This was true for both activated caspase 8 and 3. A more distinct increase was evident with caspase 3 albeit less pronounced than that of 4c and the increase was expected as caspase 3 is activated by initiator caspase including caspase 8, which is a later event in apoptosis. […] We also evaluated compound 5g for potential to induce other key apoptotic biochemical features such as phosphatidylserine (PS) translocation, cell cycle arrest and mitochondrial membrane depolarization.

[3] = system: cervical cancer (HeLa) cells; assay: MTT dose response cytotoxicity, HeLa; format: cell-based; conditions: Homo sapiens, 48 h
Procedure: as §1, §2

[4] = system: HeLa cells; assay: Other apoptotic features (PS translocation, cell cycle arrest, mitochondrial membrane depolarization), HeLa; format: cell-based, human; conditions: after 24 h (data not included)
Procedure: as §3

[5] = system: A549 cells; assay: Caspase 8 and 3 activation (immunochemical), A549; format: cell-based, human; conditions: 24 h exposure at IC50 values
Procedure: (§4) Several distinctive mechanisms of cancer cell death such as apoptosis, necrosis, autophagy and cornification have been identified, and these are characterized by differences in morphology and biochemical changes. A major biochemical feature of apoptosis is the activation of caspases, which plays a central role in the morphological changes associated with apoptosis. Caspase activation was determined using immunochemical methods and the antibodies against activated caspase 8 and caspase 3. […] Activated caspase 8 can be used as a convenient indicator of involvement of the extrinsic death receptor pathway of apoptosis. Executioner caspases including caspase 3 are, in turn, activated by the initiator caspases. This protein is either partially or totally responsible for the cleavage of many key proteins such as PARP, DNA protein kinases and retinoblastoma protein [25]. […] This was true for both activated caspase 8 and 3. A more distinct increase was evident with caspase 3 albeit less pronounced than that of 4c and the increase was expected as caspase 3 is activated by initiator caspase including caspase 8, which is a later event in apoptosis. […] Prolonged treatment of the cells with compounds 5e–h for 48 h or more, for example, would probably result in significant effects. We also evaluated compound 5g for potential to induce other key apoptotic biochemical features such as phosphatidylserine (PS) translocation, cell cycle arrest and mitochondrial membrane depolarization.
(§5) Compounds 4c and 5g were selected for mechanism studies and these test compounds were reconstituted in dimethyl sulphoxide (DMSO) to give a final concentration of 40 mM. Samples were stored at 4 °C until required. […]
(§6) Quantification of live and dead cells for the assay was performed using the ImageXpress Micro XLS Widefield Microscope and acquired images analysed using the MetaXpress software and Multi-Wavelength Cell Scoring Application Module and the Cell Cycle Module. Acquired data was transferred to an EXCEL spreadsheet and data was analysed and processed.

[6] = system: HeLa cells; assay: Caspase 8 and 3 activation (immunochemical), HeLa; format: cell-based, human; conditions: 24 h exposure at IC50 values
Procedure: as §4, §5, §6

Compound: CC(=O)Nc1cc(Br)cc2c(C(=O)C(F)(F)F)c(-c3cccc(Cl)c3)[nH]c12 [Compound 5g, N-[5-Bromo-2-(3-chlorophenyl)-3-trifluoroacetyl-1H-indol-7-yl]acetamide]
- IC50 [1]: 2.72 ± 0.43 µM
- PS translocation, cell cycle arrest and mitochondrial membrane depolarization [2]: failed to induce
- IC50 [3]: 8.74 ± 0.94 µM
- PS translocation, cell cycle arrest and mitochondrial membrane depolarization [4]: failed to induce
- Caspase 8 and 3 activation (% change in mean integrated fluorescence intensity of the untreated control) [5]: expected increase
- Caspase 8 and 3 activation (% change in mean integrated fluorescence intensity of the untreated control) [6]: decrease
